According to patent US20050033056A1, “Hydroxylated indole derivatives and uses thereof” (priority 2001, published 2005):
Entries after “also recorded” stand apart in the source; their conditions may differ. Like-named read-outs stand apart in the source and are kept apart here.

How the values were obtained:
[1] = target: T1, cDNA-expressed recombinant CYP2C19 (Homo sapiens, UniProt P33261); test: Apparent Ki with recombinant CYP2C19 (S-mephenyloin 4'-hydroxylation; Dixon plots, SNLR); assay type: in vitro ADME; conditions: for Ki: recombinant CYP2C19
T1 construct: purchased Gentest Corp. (Woburn, Mass.); host or cells: insect cells (microsomal preparation)
T1 sequence (P33261 whole entry): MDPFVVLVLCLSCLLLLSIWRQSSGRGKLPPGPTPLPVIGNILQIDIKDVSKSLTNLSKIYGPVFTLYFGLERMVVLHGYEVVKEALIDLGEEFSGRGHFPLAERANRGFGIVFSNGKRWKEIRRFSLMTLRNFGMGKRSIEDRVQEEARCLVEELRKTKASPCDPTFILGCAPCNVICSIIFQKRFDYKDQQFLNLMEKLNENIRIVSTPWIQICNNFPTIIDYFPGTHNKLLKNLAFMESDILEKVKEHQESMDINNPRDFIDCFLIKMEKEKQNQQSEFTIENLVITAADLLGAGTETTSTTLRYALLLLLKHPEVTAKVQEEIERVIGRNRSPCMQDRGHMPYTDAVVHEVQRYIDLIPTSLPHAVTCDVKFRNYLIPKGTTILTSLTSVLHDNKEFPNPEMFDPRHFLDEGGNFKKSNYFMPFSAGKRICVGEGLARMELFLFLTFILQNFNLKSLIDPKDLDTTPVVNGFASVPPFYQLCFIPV
Protocol: If inhibition was detected, the inhibitory potency was determined using recombinant CYPs. Compound 1 appeared to inhibit the activities of CYP2D6 and CYP2C19. Therefore, three concentrations of S-mephenyloin (30, 80, and 200 μM) and bufuralol (5, 10, and 40 μM), and a range of concentrations (0-200 μM) of Compound 1 were used for the construction of Dixon plots and simultaneously nonlinear regression (SNLR) analyses were performed. The incubation conditions and sample preparations were the same as previously described.
4. CYP2C19-mediated S-mephenyloin 4′-hydroxylation (Goldstein et al., Biochemistry 33:1743-1752, 1994): The LC/MS/MS system, including the separation column, described for the bufuralol hydroxylation was used. The isocratic mobile phase, 100 mM formic acid-acetonitrile/75:25, was run at 0.25 ml/minutes. The operation of the LC/MS/MS was controlled by MacChrom (Version 1.6). The MS/MS was operated at positive ESI with a 5.5 kV ionization potential and 100° C. ion source temperature. MRM was applied for the quantification. The MRM transition ions were m/z 235→150 for 4′-hydroxymephenytoin, and m/z […] for the IS R-propranolol.
(§1) Data were acquired and analyzed by ChemStation (Version 6.03, Hewlett Packard, Waldbronn, Germany) for 6-, 7-, and 10-hydroxywarfarin and 6-hydroxychlorzoxazone, and MacQuan (Version 1.6, PE Biosystem, Foster City, Calif.) for 1′-hydroxybufuralol and 4′-hydroxymephenytoin. Quantification was based on peak area ratios of metabolites over the respective IS against the respective concentration of the metabolites. The standard curves were generated by linear regression with (6-, 7-, and 10-hydroxywarfarin, 1′-hydroxybufuralol, and 4′-hydroxymephenytoin) or without (6-hydroxychlorzoxazone) a weighting factor (1/x^2). The metabolic rates were determined using Excel (Microsoft Office 97, Microsoft Corporation, Redmond, Wash.) or SigmaPlot (Version 6.00, SPSS Inc. Chicago, Ill.). […]

CYP2E1 = target: T2, CYP2E1 (Homo sapiens, UniProt P05181); test: CYP inhibition in HLM: chlorzoxazone 6-hydroxylation; assay type: in vitro ADME; conditions: 10 or 50 μM
T2 construct: tissue Gentest Corp. (Woburn, Mass.); host or cells: pooled human liver microsomes
T2 sequence (P05181 whole entry): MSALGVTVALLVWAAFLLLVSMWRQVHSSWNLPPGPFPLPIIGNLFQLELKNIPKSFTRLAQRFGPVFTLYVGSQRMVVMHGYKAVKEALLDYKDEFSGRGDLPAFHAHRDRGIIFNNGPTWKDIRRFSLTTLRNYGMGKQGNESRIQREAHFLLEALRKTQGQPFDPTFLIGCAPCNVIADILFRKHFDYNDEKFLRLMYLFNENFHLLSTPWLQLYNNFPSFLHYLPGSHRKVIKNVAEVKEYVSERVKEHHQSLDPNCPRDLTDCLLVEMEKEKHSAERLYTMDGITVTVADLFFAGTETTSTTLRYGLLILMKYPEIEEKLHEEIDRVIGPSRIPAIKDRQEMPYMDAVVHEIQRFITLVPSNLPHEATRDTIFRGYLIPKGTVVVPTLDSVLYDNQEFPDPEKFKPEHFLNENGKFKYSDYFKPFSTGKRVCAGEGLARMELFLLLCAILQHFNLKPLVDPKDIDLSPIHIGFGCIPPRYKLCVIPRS
Protocol: The incubations were carried out in test tubes (12.0×75 mm). The incubation mixtures (250 μL) contained 0.5 mg of HLM protein, 50 (CYP1A2 and CYP2E1) or 25 (CYP2C9, CYP2C19, CYP2D6 and CYP3A4) pmol of recombinant human CYPs, Compound 1 (10 or 50 μM), probe substrate (R—, S-warfarin, chlorzoxazone, S-mephenyloin, or bufuralol) at different concentrations, and 0.5 mg of NADPH in 50 mM Tris buffer containing 15 mM MgCl2 (pH 7.4). Compound 1 was added to the reaction mixture 5 minutes prior to the addition of the probe substrate. […]
The quantification was based on the calibration curves, and the quality control (QC) samples were applied to ensure the quality of the experiments. […]
2. […] 6-hydroxychlorzoxazone was monitored by UV at 280 nm.
as §1, with “The standard curves were generated by linear regression with (6-, 7-, and 10-hydroxywarfarin, 1′-hydroxybufuralol, and 4′-hydroxymephenytoin) or without (6-hydroxychlorzoxazone) a weighting factor (1/x^2).” left out

Structure (SMILES): CNC(=O)Cc1ccc2ccn(C3CCN(CCc4ccccc4F)CC3)c2c1 [Compound 1, N-methyl-[1-[1-(2-fluorophenethyl)piperidine-4-yl]-1H-indol-6-yl] acetamide]
- type of inhibition of CYP2C19 ([1]; Dixon plots and SNLR analyses): competitive inhibitor; also recorded: primarily, if not fully, competitive
- Ki ([1]; Dixon plots, S-mephenyloin 30, 80, 200 μM, read-out: apparent Ki, CYP2C19, estimated by Dixon plots): 25 to 45 µM
- Ki ([1]; SNLR, competitive inhibition model, read-out: apparent Ki, CYP2C19 inhibition, determined by SNLR): 48 µM
- inhibitory effect on CYP2E1 activity (in words) (CYP2E1): no inhibitory effect
